Experimental data taken from US10716769B2 (GUANGZHOU JTREAT BIOSCI. LTD., priority 2015, dated 2020).
Values after ≈ are worked out from the molar mass of the structure shown.

Assays:
Format in all cases: cell-based
HSV-II, SAV strain = test: Inhibition of cytopathic effects of Vero cells caused by herpes virus type II; conditions: Human alphaherpesvirus 2; Vero cells, CPE 48 hours, Reed-Muench; read-out: IC50 Against HSV-II
From the text: Vero cells (kidney cells of African green monkey) are used as viral hosts to test the inhibition degree of the samples to the cytopathic effects of Vero cells caused by herpes virus type I and type II.
Vero cells (kidney cells of African green monkey) are used as viral hosts to test the inhibition degree of the samples to cytopathic effects of the Vero cell caused by herpes virus type I and type II.
1. Virus strains: HSV-I, VR733 strain, and HSV-II, SAV strain, which both are provided by ATCC.
2. Sample treatment: the sample is dissolved in DMSO at an appropriate concentration before use, and diluted with the culture medium 3 times at a total of 8 dilutions for test.
3. Positive control drug: acyclovir (ACV) produced by the Hubei Ke Yi pharmaceutical factory.

[1] = tested on: human lung cancer cell line (PC84045); test: MTT in vitro tumor cell inhibition; conditions: 3 days
From the text: (§1) An effective amount of the above compounds and/or the compositions containing the same used as an active ingredient have an effect on inhibiting the tumor cells. The present invention detects the inhibitory effect of the hydroxy-substituted benzophenone compounds on the proliferation of the in vitro cultured human tumor cells by the methylthiazolyl tetrazolium method.
(§2) The method is used to detect cell viability. […] Particles can be dissolved by dimethyl sulfoxide (DMSO) isopropyl alcohol or 10% acidified SDS (sodium dodecyl sulfate), and a microplate reader is used to measure the OD value at A570 wavelength, which indirectly reflects the number of live cells. The method is used for detection of the cytokines bioactivity, as well as anti-tumor drugs and tumor radiosensitivity and cytotoxicity test, and has the characteristics of being simple, fast, economical, sensitive and accurate and having good reproducibility and no need to use radionuclides. This method has been widely used in screening preclinical anticancer drugs and detecting the drug sensitivity of fresh tumor cells. The method is as below:
(§3) (1) The tumor cell suspension prepared by 0.25% of trypsin digestion and adjusted to a cell concentration of 10^5/ml with RPMI1640 containing 10% fetal calf serum is added to a 96-well plate with 100 μl for each well, cultured 24 hours, and then different dosages of drugs are added with 100 μl/well, for which, the negative control groups, positive control groups and withering wells are set, and 4 parallel wells are set for each group.
(§4) (2) They are continually cultured in incubator containing 5% of CO2 at 37° C. for 24 to 48 hours. MTT solution (5 g/L) is added to each well before the termination of the experiment. The OD value at A570 nm is detected by microplate reader. The OD value at A570 of the negative group without the addition of drugs is taken as a control. The cell survival rate and cell inhibition rate of drugs are calculated according to the following formula: Cell survival rate=(OD value of test group/OD value of control group)×100% Cell inhibition rate (%)=(OD value of the control group−OD value of the test group/(OD value of the control group−OD value of the blank group)
(§5) 1. Tumor cell lines: human glioma cell line (U251), human colon cancer cell line (LOVO), human hepatoma cell line (HepG2), human lung cancer cell line (PC84045), human endometrial carcinoma cell line (JEC), human renal carcinoma (GRC), human gastric cancer cell line (MCG804), human cervical cancer cell line (HeLa), human hepatocellular carcinoma cell line (BEL-7402) and human umbilical vein endothelial cell line (ECV304) purchased from Animal Experimental Center of Zhongshan Medical College, and preserved by the present laboratory.
(§6) The tumor cell lines are cultured in RPMI-1640 medium containing 15% of the newborn bovine serum in a conventional manner, placed in the humidification incubator containing 5% of CO2 for being cultured at 37° C., and are observed for growth by an inverted microscope. A subculture is conducted every about 3-5 days, the cells in logarithmic growth phase are adopted to be digested with 0.25% of trypsin, and the serum-free RPMI-1640 medium is used for culturing the cell suspension; the blood counting plate makes counting, the trypan blue exclusion tests the cell activity, and the cell viability>95% is used for formal tests.
(§7) Liquid preparation: the compounds are labeled with the codes respectively, DMSO is used to dissolve each compound, the bacterial filter is used to remove bacteria, and each compound is prepared into 10^−4 g/ml, 10^−5 g/ml, 10^−6 g/ml and preserved at 4° C. for use. […]

[2] = tested on: human hepatoma cell line (HepG2); test: MTT in vitro tumor cell inhibition; conditions: 3 days
From the text: as §1, §2, §3, §4, §5, §6, §7

[3] = tested on: human endometrial carcinoma cell line (JEC); test: MTT in vitro tumor cell inhibition; conditions: 3 days
From the text: as §1, §2, §3, §4, §5, §6, §7

[4] = tested on: human colon cancer cell line (LOVO); test: MTT in vitro tumor cell inhibition; conditions: 3 days
From the text: as §1, §2, §3, §4, §5, §6, §7

MCF7 = test: MTT in vitro tumor cell inhibition; conditions: 3 days
From the text: as §1, §2, §3, §4, §6
Liquid preparation: the compounds are labeled with the codes respectively, DMSO is used to dissolve each compound, the bacterial filter is used to remove bacteria, and each compound is prepared into 10^−4 g/ml, 10^−5 g/ml, 10^−6 g/ml and preserved at 4° C. for use.
MTT method: a bottle of 4-5 days old cells in the exponential growth phase are adopted to be cultured, and added with an appropriate amount of Trypsin-EDTA solution, so as to enable the adherent cells to fall off, and are prepared with 10 ml of RPMI-1640 medium containing 15% newborn bovine serum into suspensions; after stained with trypan blue, the cell number is counted on the blood counting plate to ensure that the live cells is more than 97%; the cell suspensions are diluted by the complete medium so that each […] of solution contains 5000-400000 cells; the 96-well plate is used with 200 μl of cell suspensions added into each. The 96-well plate is placed at 37° C. in 5% of CO2 containing incubator for 24 hours; the test compounds are diluted at 3 dilutions with 5 wells in parallel for each concentration; the serum-free RPMI1640 is used as the control group. […]

Structure (SMILES) | IC50 (HSV-II, SAV strain) [µg/mL] | Inhibitory rate % ([1]; PC84045, 10^−4 g/ml) [%] | Inhibitory rate % ([1]; PC84045, 10^−5 g/ml) [%] | Inhibitory rate, sensitivity class ([1]; PC84045, 10^−6 g/ml) | Inhibitory rate % ([2]; HepG2, 10^−4 g/ml) [%] | Inhibitory rate % ([2]; HepG2, 10^−5 g/ml) [%] | Inhibitory rate, sensitivity class ([2]; HepG2, 10^−6 g/ml) | Inhibitory rate % ([3]; 10^−4 g/ml) [%] | Inhibitory rate % ([3]; 10^−5 g/ml) [%] | Inhibitory rate, sensitivity class ([3]; 10^−6 g/ml) | Inhibitory rate, sensitivity class ([4]; 10^−5 g/ml) | Inhibitory rate, sensitivity class ([4]; 10^−6 g/ml) | Inhibitory rate % (MCF7; MCF7, 10^−4 g/ml) [%] | Inhibitory rate % (MCF7; MCF7, 10^−5 g/ml) [%] | Inhibitory rate, sensitivity class (MCF7; MCF7, 10^−6 g/ml) | Inhibitory rate % ([4]; 10^−4 g/ml) [%] | also measured
O=C(c1ccc(O)c(O)c1O)c1ccc(O)c(O)c1O [2,3,4,2′,3′,4′-hexahydroxybenzophenone] | 10.8 (≈ 39 µM) | 84.60 | 72.34 | insensitive (<30% means insensitive) | 86.15 | 75.54 | insensitive (<30% means insensitive) | 85.63 | 42.79 | insensitive (<30% means insensitive) | insensitive (<30% means insensitive) | insensitive (<30% means insensitive) | 76.37 | 43.52 | insensitive (<30% means insensitive) | – | Inhibitory rate, sensitivity class ([4]; 10^−4 g/ml): insensitive (<30% means insensitive)
O=C(c1ccccc1)c1ccc(O)c(O)c1O [2,3,4-trihydroxybenzophenone] | 28.7 (≈ 125 µM) | 85.75 | 32.79 | insensitive (<30% means insensitive) | 93.40 | 58.05 | insensitive (<30% means insensitive) | 86.79 | 40.97 | insensitive (<30% means insensitive) | – | insensitive (<30% means insensitive) | 78.59 | 38.60 | insensitive (<30% means insensitive) | 90.02 | Inhibitory rate % ([4]; 10^−5 g/ml): 46.78%
O=C(c1ccc(O)cc1O)c1ccc(O)cc1O [2,4,2′,4′-tetrahydroxybenzophenone] | 28.7 (≈ 117 µM) | 53.40 | – | insensitive (<30% means insensitive) | 74.85 | – | insensitive (<30% means insensitive) | 46.70 | – | insensitive (<30% means insensitive) | insensitive (<30% means insensitive) | insensitive (<30% means insensitive) | 45.73 | – | insensitive (<30% means insensitive) | 53.29 | Inhibitory rate, sensitivity class ([1]; PC84045, 10^−5 g/ml): insensitive (<30% means insensitive); Inhibitory rate, sensitivity class ([2]; HepG2, 10^−5 g/ml): insensitive (<30% means insensitive); Inhibitory rate, sensitivity class ([3]; 10^−5 g/ml): insensitive (<30% means insensitive); Inhibitory rate, sensitivity class (MCF7; MCF7, 10^−5 g/ml): insensitive (<30% means insensitive)
O=C(c1cc(O)c(O)cc1O)c1ccc(O)c(O)c1O | – | 82.49 | 70.97 | – | 85.12 | 51.57 | insensitive (<30% means insensitive) | 83.16 | 42.57 | insensitive (<30% means insensitive) | insensitive (<30% means insensitive) | insensitive (<30% means insensitive) | 73.19 | 35.48 | insensitive (<30% means insensitive) | 51.19 | Inhibitory rate % ([1]; PC84045, 10^−6 g/ml): 49.70%
